Values after ≈ are worked out from the molar mass of the structure shown. Where two headings read alike, the source gives them in different places.

As usually defined, the IC50 is the concentration at which inhibition is half-maximal. A low value points to higher potency.

In experiment [1] the target is T1, purified DHFR of strain Sp1/1 of Streptococcus pneumoniae (Streptococcus pneumoniae serotype 4, UniProt Q54801).
T1 sequence (Q54801 1-168 I100L): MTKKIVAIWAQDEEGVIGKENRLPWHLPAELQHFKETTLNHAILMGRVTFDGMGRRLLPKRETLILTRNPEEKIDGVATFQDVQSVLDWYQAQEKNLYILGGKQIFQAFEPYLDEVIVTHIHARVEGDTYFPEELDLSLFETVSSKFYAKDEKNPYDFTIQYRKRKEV
Type of experiment: biochemical. The settings on record: IC50 against purified DHFR of strain Sp1/1.

Experiment [2] deals with Streptococcus pneumoniae 1/1. Kind of experiment: MIC against Streptococcus pneumoniae 1/1. The format is cell-based. The note with it: Streptococcus pneumoniae 1/1, trimethoprim- and penicillin-resistant, serotype 6, clinical isolate, read-out: MIC Sp1/1.
In experiment [3] the target is purified DHFR of strain 157/4696 of Staphylococcus aureus (Staphylococcus aureus, UniProt P13955). As to the kind of experiment: biochemical.
For experiment [4], the system named is Staphylococcus aureus 101. Kind of experiment: MIC against Staphylococcus aureus 101. Type of experiment: cell-based. The settings on record: Staphylococcus aureus 101, MRSA- and trimethoprim-resistant, clinical isolate, read-out: MIC Sa101.

Sequence of purified DHFR of strain 157/4696 of Staphylococcus aureus (P13955 whole entry): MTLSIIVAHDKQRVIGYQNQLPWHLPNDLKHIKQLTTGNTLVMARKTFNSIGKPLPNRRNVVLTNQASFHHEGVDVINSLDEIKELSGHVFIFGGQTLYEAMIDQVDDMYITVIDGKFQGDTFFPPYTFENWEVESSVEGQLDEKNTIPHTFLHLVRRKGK

For the compound `CCOc1cc(Cc2cnc(N)nc2N)cc(OS(=O)(=O)N2CCCC2)c1-c1ccc(O)cc1` [Example 20-c, Pyrrolidine-1-sulrbonic acid 4-(2,4-diamino-pyrimidin-5-ylmethyl)-6-ethoxy-4′-hydroxy-biphenyl-2-yl ester], the IC50 in experiment [1] (Table 2) amounted to 8.1 nM; in experiment [3], 180 nM. Also, the MIC in experiment [2] (Table 2) stood at 1 µg/mL (≈ 2.06 µM); in experiment [4] (Table 2), 4 µg/mL (≈ 8.24 µM).
As to `CCOc1cc(Cc2cnc(N)nc2N)cc(OS(=O)(=O)N2CCOCC2)c1-c1ccc(O)cc1` [Example 20-d, Morpholine-4-sulphonic acid 4-(2,4-diamino-pyrimidin-5-ylmethyl)-6-ethoxy-4′-hydroxy-biphenyl-2-yl ester], the IC50 came to 5.8 nM in experiment [1] (Table 2) and 95 nM in experiment [3]. The MIC in experiment [2] (Table 2) was found to be 1 µg/mL (≈ 1.99 µM); in experiment [4] (Table 2), 8 µg/mL (≈ 16 µM).
The like results for `CCOc1cc(Cc2cnc(N)nc2N)cc(OS(=O)(=O)N(C)C(C)C)c1-c1ccc(O)cc1` [Example 20-e, N-Isopropyl-N-methyl-sulphamic acid 4-(2,4-diamino-pvrimidin-5-ylmethyl)-6-ethoxy-4′-hydroxy-biphenyl-2-yl ester] were, in that order, 14 nM, 160 nM, 2 µg/mL (≈ 4.1 µM) and 2 µg/mL (≈ 4.1 µM).
Consider `CCOc1cc(Cc2cnc(N)nc2N)cc(OS(=O)(=O)N(C)C2CC2)c1-c1ccc(O)cc1` [Example 20-f, N-Cyclopropld-N-methyl-sulphamic acid 4-(2,4-diamino-pyrimidin-5-ylmethyl)-6-ethoxy-4′-hydroxy-biphenyl-2-yl ester], for which the IC50 was 9.8 nM in experiment [1] (Table 2) and 140 nM in experiment [3]. Besides, the MIC in experiment [2] (Table 2) and in experiment [4] (Table 2) was 1 µg/mL (≈ 2.06 µM) throughout.
For `CCOc1cc(Cc2cnc(N)nc2N)cc(OS(=O)(=O)N(C)CC)c1-c1ccc(O)cc1` [Example 20-g, N-Ethyl-N-methyl-sulphamic acid 4-(2,4-diamino-pyrimidin-5-ylmethyl)-6-ethoxy-4′-hydroxy-biphenyl-2-yl ester], the 50% inhibitory concentration (IC50) is 7.2 nM in experiment [1] (Table 2) and 160 nM in experiment [3]. Also, the MIC was determined as 1 µg/mL (≈ 2.11 µM) in experiment [2] (Table 2) and 2 µg/mL (≈ 4.22 µM) in experiment [4] (Table 2).
With `CCOc1cc(Cc2cnc(N)nc2N)cc(OS(=O)(=O)N(CC)CC)c1-c1ccc(O)cc1` [Example 20-h, Diethyl-sulphamic acid 4-(2,4-diamino-pyrimidin-5-ylmethyl)-6-ethoxy-4′-hydroxy-biphenyl-2-yl ester], the values for the IC50 in experiment [1] (Table 2) and in experiment [3] were 9.2 nM and 350 nM, respectively. For the same compound, the MIC in experiment [2] (Table 2) stood at 1 µg/mL (≈ 2.05 µM); in experiment [4] (Table 2) it was 2 µg/mL (≈ 4.1 µM).
The like results for `CCOc1cc(Cc2cnc(N)nc2N)cc(OS(=O)(=O)N(C)C)c1-c1ccc(OC)cc1` [Example 21-, Dimethylsulphamic acid 4-(2,4-diamino-pyrimidin-5-ylmethyl)-6-ethoxy-4′-methoxy-biphenyl-2-yl ester] were, in that order, 52 nM, 130 nM, 2 µg/mL (≈ 4.22 µM) and 2 µg/mL (≈ 4.22 µM).
As for `CCOc1cc(Cc2cnc(N)nc2N)cc(OS(=O)(=O)N(C)C)c1-c1ccc(N)cc1` [Example 22-a, Dimethylsulphamic acid 4′-amino-4-(2,4-diamino-pyrimidin-5-ylmethyl)-6-ethoxy-biphenyl-2-yl ester], the half-inhibitory concentration (IC50) in experiment [1] (Table 2) worked out at 3.1 nM; in experiment [3], 48 nM. Moreover, the MIC in experiment [2] (Table 2) was 1 µg/mL (≈ 2.18 µM); in experiment [4] (Table 2), 2 µg/mL (≈ 4.36 µM).
As for `CCOc1cc(Cc2cnc(N)nc2N)cc(OS(=O)(=O)N(C)CC)c1-c1ccc(N)cc1` [Example 22-b, N-Ethyl-N-methyl-sulphamic acid 4′-amino-4-(2,4-diamino-pyrimidin-5-ylmethyl)-6-ethoxy-biphenyl-2-yl ester], the IC50 in experiment [1] (Table 2) was determined as 2.3 nM; in experiment [3], 38 nM. Further, the MIC in experiment [2] (Table 2) and in experiment [4] (Table 2) was 1 µg/mL (≈ 2.12 µM) in each case.
Turning to `CCOc1cc(Cc2cnc(N)nc2N)cc(OS(=O)(=O)N2CCCC2)c1-c1ccc(N)cc1` [Example 22-c, Pyrrolidine-1-sulphonic acid 4′-amino-4-(2,4-diamino-Ryrimidin-5-ylmethyl)-6-ethoxy-biphenyl-2-yl ester], the IC50 stood at 3.3 nM in experiment [1] (Table 2) and 140 nM in experiment [3]. Besides, the MIC in experiment [2] (Table 2) and in experiment [4] (Table 2) was 1 µg/mL (≈ 2.06 µM) throughout.
Take `CCOc1cc(Cc2cnc(N)nc2N)cc(OS(=O)(=O)N2CCOCC2)c1-c1ccc(N)cc1` [Example 22-d, Morpholine-4-sulphonic acid 4′-amino-4-(2,4-diamino-pyrimidin-5-ylmethyl)-6-ethoxy-biphenyl-2-yl ester]: the half-maximal inhibitory concentration (IC50) in experiment [1] (Table 2) is 6.1 nM; in experiment [3] it was 45 nM. Besides, the results for the MIC in experiment [2] (Table 2) and in experiment [4] (Table 2) were 1 µg/mL (≈ 2 µM) and 2 µg/mL (≈ 4 µM), respectively.
`CCOc1cc(Cc2cnc(N)nc2N)cc(OS(=O)(=O)N(CC)CC)c1-c1ccc(N)cc1` [Example 22-f, Diethylsulphamic acid 4′-amino-4-(2,4-diamino-pyrimidin-5-ylmethyl)-6-ethoxy-biphenyl-2-yl ester]: the IC50 in experiment [1] (Table 2) was 14 nM; in experiment [3], 150 nM. The MIC is 1 µg/mL (≈ 2.06 µM) in experiment [2] (Table 2) and 2 µg/mL (≈ 4.11 µM) in experiment [4] (Table 2).
For the compound `CCOc1cc(Cc2cnc(N)nc2N)cc(OS(=O)(=O)N(C)C2CC2)c1-c1ccc(N)cc1` [Example 22e, N-Cyclopropyl-N-methyl-sulphamic acid 4′-amino-4-(2,4-diamino-pyrimidin-5-ylmethyl)-6-ethoxy-biphenyl-2-yl ester], the half-maximal inhibitory concentration (IC50) was 13 nM in experiment [1] (Table 1) and 150 nM in experiment [3]. Also, the MIC in experiment [2] (Table 1) was found to be 1 µg/mL (≈ 2.06 µM); in experiment [4] (Table 1) it was 2 µg/mL (≈ 4.13 µM).
Take `CCOc1cc(Cc2cnc(N)nc2N)cc(OCC2CC2)c1-c1ccc(CN2CCOCC2)s1` [Example 23-, 5-[3-Cyclopropylmethoxy-5-ethoxy-4-(5-morpholin-4-ylmethyl-thiophen-2-yl)-benzyl]-pyrimidine-2,4-diamine]: the IC50 was 8 nM in experiment [1] (Table 2) and 2600 nM in experiment [3]. Further, the MIC in experiment [2] (Table 2) turned out to be 1 µg/mL (≈ 2.02 µM); in experiment [4] (Table 2) it was 8 µg/mL (≈ 16.1 µM).
On to `CCOc1cc(Cc2cnc(N)nc2N)cc(OS(=O)(=O)C2CC2)c1-c1ccc(CN2CCOCC2)s1` [Example 24-, Cyclopropanesulphonic acid 5-(2,4-diamino-pyrimidin-5-ylmethyl)-3-ethoxy-2-(5-morpholin-4-ylmethyl-thiophen-2-yl)-phenyl ester], for which the IC50 in experiment [1] (Table 2) amounted to 16 nM; in experiment [3], 190 nM. Further, the figures for the MIC in experiment [2] (Table 2) and in experiment [4] (Table 2) were 1 µg/mL (≈ 1.83 µM) and 4 µg/mL (≈ 7.33 µM), respectively.
Turning to `CCOc1cc(Cc2cnc(N)nc2N)cc(OS(=O)(=O)N(C)C)c1-c1ccc(NC)cc1` [Example 26-a, Dimethylsulphamic acid 4-(2,4-diamino-pyrimidin-5-ylmethyl)-6-ethoxy-4′-methylamino-biphenyl-2-yl ester], the IC50 was 2.1 nM in experiment [1] (Table 2) and 130 nM in experiment [3]. For the same compound, the MIC in experiment [2] (Table 2) and in experiment [4] (Table 2) was 1 µg/mL (≈ 2.12 µM) each time.
Take `CCOc1cc(Cc2cnc(N)nc2N)cc(OS(=O)(=O)N(C)CC)c1-c1ccc(NC)cc1` [Example 26-b, N-Ethyl-N-methyl-sulphamic acid 4-(2,4-diamino-pvrimidin-5-ylmethyl)-6-ethoxy-4′-methylamino-biphenyl-2-yl ester]: the IC50 came to 1.9 nM in experiment [1] (Table 2) and 170 nM in experiment [3]. For the same compound, the MIC in experiment [2] (Table 2) and in experiment [4] (Table 2) was 1 µg/mL (≈ 2.06 µM) each time.
For `CCOc1cc(Cc2cnc(N)nc2N)cc(OS(=O)(=O)N(C)C2CC2)c1-c1ccc(NC)cc1` [Example 26-d, N-Cyclopropyl-N-methyl-sulphamic acid 4-(2,4-diamino-pyrimidin-5-ylmethyl)-6-ethoxy-4′-methylamino-biphenyl-2-yl ester], the values for the half-inhibitory concentration (IC50) in experiment [1] (Table 2) and in experiment [3] were 5.1 nM and 140 nM, respectively. The MIC in experiment [2] (Table 2) and in experiment [4] (Table 2) was 1 µg/mL (≈ 2.01 µM) throughout.
In the case of `CCOc1cc(Cc2cnc(N)nc2N)cc(OS(=O)(=O)N2CCCC2)c1-c1ccc(NC)cc1` [Example 26-e, Pyrrolidine-1-sulphonic acid 4-(2,4-diamino-pyrimidin-5-ylmethyl)-6-ethoxy-4′-methylamino-biphenyl-2-yl ester], the IC50 in experiment [1] (Table 2) was 2.3 nM; in experiment [3], 130 nM. Further, the MIC in experiment [2] (Table 2) and in experiment [4] (Table 2) was 1 µg/mL (≈ 2.01 µM) in each case.
On to `CCOc1cc(Cc2cnc(N)nc2N)cc(OS(=O)(=O)N(CC)CC)c1-c1ccc(NC)cc1` [Example 26-f, Diethylsulphamic acid 4-(2,4-diamino-pyrimidin-5-ylmethyl)-6-ethoxy-4′-methylamino-biphenyl-2-yl ester], for which the IC50 in experiment [1] (Table 2) turned out to be 8.8 nM; in experiment [3] it was 230 nM. Further, the figures for the MIC in experiment [2] (Table 2) and in experiment [4] (Table 2) were 1 µg/mL (≈ 2 µM) and 2 µg/mL (≈ 4 µM), respectively.
As to `CCOc1cc(Cc2cnc(N)nc2N)cc(OS(=O)(=O)N2CCOCC2)c1-c1ccc(NC)cc1` [Example 26c, Morpholine-4-sulphonic acid 4-(2,4-diamino-pyrimidin-5-ylmethyl)-6-ethoxy-4′-methylamino-biphenyl-2-yl ester], the figures for the IC50 in experiment [1] (Table 1) and in experiment [3] were 3.2 nM and 56 nM, respectively. The MIC in experiment [2] (Table 1) is 0.5 µg/mL (≈ 0.972 µM); in experiment [4] (Table 1) it was 1 µg/mL (≈ 1.94 µM).
Turning to `CCOc1cc(Cc2cnc(N)nc2N)cc(OS(=O)(=O)N(C)C)c1-c1ccc(N)c(C)c1` [Example 27-a, Dimethylsulphamic acid 4′-amino-4-(2,4-diamino-pyrimidin-5-ylmethyl)-6-ethoxy-3′-methyl-biphenyl-2-yl ester], the figures for the IC50 in experiment [1] (Table 2) and in experiment [3] were 22 nM and 220 nM, respectively. Moreover, the MIC is 1 µg/mL (≈ 2.12 µM) in experiment [2] (Table 2) and 2 µg/mL (≈ 4.23 µM) in experiment [4] (Table 2).

Source of the values: patent publication US6821980B1, “Substituted 5-benzyl-2,4-diaminopyrimidines” (Basilea Pharmaceutica AG, priority 1999, dated 2004).
